Six compounds from patent US20180360093A1, “NUTRITIONAL COMPOSITIONS AND INFANT FORMULAS TO PROMOTE MYELINATION IN THE BRAIN” (NESTEC S.A., priority 2015, published 2018) can be followed below.

This experiment relates to brain myelination. The experiment in a line: Cross-sectional correlation analysis (GLM) of formula nutrient composition versus brain myelination (MWF by mcDESPOT MRI). The experiment is classed as in vivo, human. To be noted: children up to 5 years fed different infant formulas during infancy; voxel-wise correlations, p<0.05 corrected. As to the method: MRI brain scans of infants and children between 0 and 5 years were acquired using a white matter imaging technique. This technique provides a quantitative measure, the Myelin Water Fraction (MWF), which is a surrogate marker of myelin content. When mapped as a function of time across early childhood, myelination trajectories can be generated.
Infant formula composition: six infant formulas fed to infants participating in study were analyzed for their composition/level of myelin-relevant nutrients.
Infants included in this study were drawn from a larger longitudinal study of normal brain and behavioral development: the Brown university Assessment of Myelination and Behavior Across Maturation (BAMBAM). To focus on neurotypical development, children with known potential risk factors for learning, neurologic, or psychiatric disorders were specifically excluded during recruitment and enrollment. Thus, children with in utero alcohol or illicit substance exposure, premature (<37 weeks gestation) or multiple birth, fetal ultrasound abnormalities, complicated pregnancy (e.g., preeclampsia), APGAR scores<8, NICU admission, neurological disorder (e.g., head injury, epilepsy), psychiatric or developmental disorders in the infant, parents or siblings (including maternal depression requiring medication) were excluded. Ongoing screenings, such as the MCAT for autism, or CBCL for behavioral problems, were further used to remove enrolled children with clinically concerning behaviors or overt medical conditions (such as autism spectrum disorders).
A combination of retrospective and prospective data were acquired from parents via detailed medical histories and parental interview on type of infant formula used, percentage of breastfeeding to formula feeding, and length of exclusive breastfeeding. This information was updated at each study visit, which occurred approximately every 6 months for children under 2 years, and yearly for older children. Using this information, children were categorized into one of 2 groups: #1. Exclusively formula-fed; and #2. Exclusively breastfed for at least 90 days (3 months). Children who were fed a combination of breastmilk and formula within 3 months were excluded from our analysis. Infants within the exclusively formula-fed group were further sub-divided based on parental reports of the main infant formula used throughout the first 3 months. Main formula was defined as that given 90% of the time or more (in the case were parents used an alternate brand during vacation, for example).
Using these criteria, 94 exclusively formula-fed infants and young children were selected into group #1. These included 13 children who received formula #2; 28 who received formula #5; 8 who received formula #3; 39 who received formula #4; 5 who received formula #1 and 1 who received formula #6. A sample of 52 exclusively breast-fed infants were also selected and matched to the over formula-fed group with regards to mean age, gestation duration, birth weight, male:female ratio, ethnicity ratio, maternal education, family size, and number of languages spoken in the home (in addition to English).
Each infant was scanned using the mcDESPOT (multicomponent Driven Equilibrium Single Pulse Observation of T1 and T2) white matter imaging technique Deoni et al. (Magn. Reson. Med. 2008, 60:1372-1387), which provides a quantitative measure of the myelin water fraction (MWF) at each imaging point throughout the brain. All infants were scanned during natural (i.e. non-sedated) sleep using acoustically-muffled mcDESPOT imaging protocols. Total imaging times ranged from 19 minutes for the youngest toddlers to 24 minutes for the older 4 year-old children.
Consider `CCCCC/C=C\C/C=C\C/C=C\C/C=C\CCCC(=O)O` [ARA, arachidonic acid], for which the “nutritional drivers for myelination (final general linear model)” value (shortened to “nutritional drivers for myelination”) is given as “identified drivers”.

Turning to `C[N+](C)(C)CCO` [Choline], the “nutritional drivers for myelination” value was “identified drivers”.

As to phosphatidylinositol, the “nutritional drivers for myelination” value was “identified drivers”.

With sphingomyelin, the “nutritional drivers for myelination” value is given as “identified drivers”.

Vitamin B12: the “nutritional drivers for myelination” value was “identified drivers”.

For phosphatidylcholine, the “nutritional drivers for myelination” value was “identified drivers”.
